EP3053944B1, “METHOD FOR PRODUCING POLYALKYLENE GLYCOL DERIVATIVE HAVING AMINO GROUP AT END, POLYMERIZATION INITIATOR FOR USE IN THE SAME, AND ALCOHOL COMPOUND AS RAW MATERIAL FOR THE POLYMERIZATION INITIATOR” (Shin-Etsu Chemical Co., Ltd., priority 2014, dated 2016)

How the values were obtained:
Assay type in all cases: physicochemical
[1] = Solubility of polymerization initiators in polymerization solvents (visual observation); design: key to solubility to polymerization solvents: Toluene / solubility to polymerization solvents: THF: Excellent: In the case in which cloudiness was not observed at all in the solution by visual observation, the initiator was shown as "excellent"; Poor: in the case in which cloudiness was observed or the initiator did not dissolve at all, or in the case in which the initiator decomposed when the alkoxide was formed from the initiator, the initiator was shown as "poor"; details: for solubility to polymerization solvents: Toluene: initiator dissolved in toluene at 20 wt.%; for solubility to polymerization solvents: Toluene / solubility to polymerization solvents: THF: visual observation; for dissolution in the solvent(s): summary in words of Table 8, THF or toluene, 20 wt.%; for solubility to polymerization solvents: THF: initiator dissolved in THF at 20 wt.%
Description: Results of solubility of the initiators 1-2, 6-7, 9-10 and 12, reference initiators 3-5, 8 and 11, and comparative initiators 1 to 8 to polymerization solvents are shown below. THF in each of the products of the initiators 1-2, 6-7, 9-10 and 12, reference initiators 3-5, 8 and 11, and the comparative initiators 1 to 8 synthesized above was distilled away under reduced pressure to extract the polymerization initiators. The results obtained by dissolving each polymerization initiator in each polymerization solvent at a concentration of 20 wt.% are shown. […]

[2] = Stability of the initiator when the alkoxide is formed (migration of protective group); details: on synthesis of the alkoxide
Description: Since the silicon-oxygen bond is generally stronger than the silicon-nitrogen bond, there is a possibility that exchange reaction between the silicon-nitrogen bond and the silicon-oxygen bond progresses within a molecule during synthesis of a silyl-protected amino group-containing alkoxide in the case in which a five-membered ring or six-membered ring structure containing a silicon-oxygen bond can be formed. Therefore, when polymerization is tried using, for example, a compound represented by the following general formula (0a) as a polymerization initiator, polymerization progresses from the amino group side, not from the alkoxide side, and a target polyalkylene glycol derivative cannot be obtained. In contrast, in the polymerization initiator (for example, the following formulas (1a) and (2a)) represented by the general formulas (1) and/or (2) for use in the present embodiment 2, production of the five-membered or six-membered ring containing a silicon-oxygen bond is suppressed by extending the length of a chain that connects nitrogen and oxygen that constitutes O^-M^+ to 4 or more, so that a stable structure can be formed in a state of being an alkoxide. As a result thereof, polymerization progresses from the alkoxide side, and the target polyalkylene glycol derivative can be obtained. [drawing 36]

[3] = Visual check for salt precipitation and cloudiness in the THF solution after initiator synthesis
Description: Among others, as the solvent for use in the [Pre-Step 2], the same solvent as will be used as the polymerization solvent in the subsequent [Step a] as will be described later is preferably used. The reason is because whether the polymerization initiator synthesized in the [Pre-Step 2] dissolves or not in the polymerization solvent for use in the [Step a] can be confirmed in advance during the synthesis of the polymerization initiator in the [Pre-Step 2]. […] […] By confirming whether the precipitation of a salt and […] of the polymerization initiator represented by the general formula (I) in THF, the solubility of the polymerization initiator in the polymerization solvent in the subsequent [Step a] can be confirmed in advance.
In a glove box under a nitrogen atmosphere, […], and after the mineral oil was washed with hexane to be separated, vacuum drying was performed for about two hours to obtain 0.50 g (12.5 mmol) of potassium hydride. Into the flask, 7.71 g of distilled THF was added with a syringe, and 4.44 g (12.8 mmol) of the compound represented by the general formula (iA) was dripped at normal temperature. Stirring was performed at normal temperature for 1 hour and then at 50°C for 2 hours, so that 12.40 g (1.02 mmol/g) of a THF solution of the compound represented by the general formula (IA) was produced. […]

SMILES	solubility to polymerization solvents: Toluene [1]	dissolution in the solvent(s) [1]	stability of the initiator [2]	solubility to polymerization solvents: THF [1]	Precipitation of a salt and cloudiness ([3]; (IA) mass/THF solution mass=22.3 wt.%, prepared with potassium naphthalene)	Precipitation of a salt and cloudiness ([3]; (IA) mass/THF solution mass=39.8 wt.%, prepared with potassium hydride)
CC[Si](CC)(CC)N(CCCCCCO)[Si](CC)(CC)CC [Initiator 10]	Excellent	dissolved in the solvent	stably existed	–	–	–
CC(C)(C)[Si](C)(C)NCCCO [Comparative initiator 5, reference compound]	Poor	–	changes in the position protected by a protective group progressed	Poor	–	–
CC[Si](CC)(CC)N(CCCOCCO)[Si](CC)(CC)CC [iA]	–	–	–	–	not observed	not observed
CC(C)(C)OC(=O)N(CCCOCCO)C(=O)OC(C)(C)C [Initiator 9]	–	dissolved in a solvent	–	Excellent	–	–
CC[Si](CC)(CC)N(CCCOCCOCCO)[Si](CC)(CC)CC [Initiator 2]	–	dissolved in the solvent	stably existed	Excellent	–	–
OCCOCCOCCOCCCN(Cc1ccccc1)Cc1ccccc1 [Ref 8]	–	dissolved in a solvent	–	Excellent	–	–
C=CCN(CC=C)CCCO [Comparative initiator 3, reference compound]	Poor	did not dissolve in the solvents	–	Poor	–	–
C=CCN(CC=C)CCCCCCO [Ref 11]	Excellent	dissolved in a solvent	–	–	–	–
CC(C)(C)OC(=O)N(CCCO)C(=O)OC(C)(C)C [Comparative initiator 8, reference compound]	Poor	did not dissolve in the solvents	–	Poor	–	–
C=CCN(CC=C)CCCOCCOCCO [Ref 4]	–	dissolved in a solvent	–	Excellent	–	–
CC[Si](CC)(CC)N(CCCO)[Si](CC)(CC)CC [Comparative initiator 1, reference compound]	Poor	–	changes in the position protected by a protective group progressed	Poor	–	–
O=C1c2ccccc2C(=O)N1CCCOCCOCCOCCO [Ref 5]	–	dissolved in a solvent	–	Excellent	–	–
C=CCN(CC=C)CCCOCCO [Ref 3]	–	dissolved in a solvent	–	Excellent	–	–
CC[Si](CC)(CC)N(CCCOCCO)[Si](CC)(CC)CC [Initiator 1]	–	dissolved in the solvent	stably existed	Excellent	–	–
O=C1c2ccccc2C(=O)N1CCCO [Comparative initiator 4, reference compound]	Poor	did not dissolve in the solvents	–	Poor	–	–
CC(C)(C)[Si](C)(C)NCCCOCCO [Initiator 6]	–	dissolved in the solvent	stably existed	Excellent	–	–
C[Si]1(C)CC[Si](C)(C)N1CCCOCCO [Initiator 7]	–	dissolved in the solvent	stably existed	Excellent	–	–
OCCCN(Cc1ccccc1)Cc1ccccc1 [Comparative initiator 7, reference compound]	Poor	did not dissolve in the solvents	–	Poor	–	–
C[Si]1(C)CC[Si](C)(C)N1CCCO [Comparative initiator 6, reference compound]	Poor	–	changes in the position protected by a protective group progressed	Poor	–	–
C[Si](C)(C)N(CCCO)[Si](C)(C)C [Comparative initiator 2, reference compound]	Poor	–	changes in the position protected by a protective group progressed	Poor	–	–
C[Si]1(C)CC[Si](C)(C)N1CCCCCCO [Initiator 12]	Excellent	dissolved in the solvent	stably existed	–	–	–
